Assay [1] has as its system primary human mesenchymal stem cells (hMSCs). The experiment in a line: Tenocyte differentiation screening in hMSCs (SCXA-positive cells, 4 days). Type of assay: cell-based. As to conditions: 96 h, fold change over DMSO. The essentials:
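Primary hMSCs at passage 3–6 were treated with compound, fixed and immunostained for SCXA, and SCXA-positive cells per well were counted by imaging. Counts were normalized to DMSO wells as fold change, averaged over triplicates, and EC50 was fitted, with high-dose values manually corrected for solubility.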

Assay [2] relates to collagenase-induced tendonitis of the Achilles tendon in Sprague Dawley rats. The experiment in a line: Rat Tendinopathy Model (1), collagenase-induced, tendon histology scoring. Type of assay: in vivo. As to conditions: for tendon histology score: topical once daily 21 days, total score of 20. The protocol:
Fifty (50 μl) of Collagenase Type IA (10 mg/ml in PBS, pH 7.4, approximately 469 units/mg) (Catalog # C5138, Sigma, St. Louis, Mo.) was injected into the Achilles tendon of both ankles near the osteotendinous junction of male Sprague Dawley CD® IGS rats (CRL, Inc.), using insulin syringes with 28.5 G needle.
Rats were divided into […] with 5 animals per group: Group 1 (sham injection); Group 2 (Collagenase-Vehicle); Group 3 (Collagenase-compound 175 10 mg/mL with 1% BA) and Group 4 (Collagenase-COMPOUND 175 10 mg/mL with 0.5% Tween 80). […] All rats were periodically observed for any pain, illnesses or abnormalities. At various time points, blood was collected for plasma in lithium heparin coated tubes by saphenous vein bleeding. For histology, rats were euthanized using isoflurane, tendons were isolated (n=6 tendons/group), fixed in 10% buffered formalin (Catalog # SF93-4, Fisher, Pittsburgh Pa.) and H & E histology staining was performed at a secondary site (Pacific Pathology, San Diego, Calif.). For biochemical analysis, tendons were isolated (n=4 tendons/group), flash frozen in liquid nitrogen and then stored at −80° C. for subsequent biochemical analysis (not reported).
There is biological variability in response to collagenase when injected directly into the tendons. […] Slides were viewed under an upright light microscope (EVOS AMEX-1200) at a 10× magnification and scored blinded using a 1-4 scoring system of severity: 1—representing severe damage and 4—representing normal tendon, for Linearity of the fiber structure, Shape of the tendon cells, Density of the tendon cells, Inflammation, and Hemorrhage for a total score of twenty (20) using a modification of that described previously (Urdzikova et al., 2014—see Table 3). […]
For tendon scoring, each section was analyzed following a 1-4 point scoring system as previously described (Urdzikova et al., 2014) with the exclusion of one variable, the Thickness of the epitenon, due to the difficulty in discerning the epitenon layer in histology sections. […]

For assay [3], the system named is TNFα production in THP-1 cells. The experiment in a line: Cytokine Production Assay, LPS-induced TNFα in THP-1 cells. Format: cell-based. As to conditions: Homo sapiens; THP-1, LPS 50 ng/mL 5 hours, 2 independent assays; read-out: average EC50, inhibition of TNFα production. The protocol: THP-1 cells were cultured in basal media with 1% FBS for 24 hours before the start of the assay. THP-1 cells were plated at 6×10e^4 cells/well and treated with DMSO (vehicle control) or compound 175 at 10 μM highest test concentration and 2 to 3.5-fold serial dilutions up to 8 concentrations (10, 3.5, 1, 0.5, 0.1, 0.035, 0.01, 0.005 μM). For the TNFα assay, 50 ng/mL of LPS was added to the wells after 2 hours to induce cytokine production, and cells were incubated for 5 hours at 37° C. For the IL6 assay, 500 ng/ml of LPS was added after 2 hours and cells were incubated for 22 hours at 37° C. Plates were spun in a centrifuge for 1 minute at 10,000 rpm and supernatants were collected for ELISA. Supernatants were diluted 1:1 for the TNFα assay and 1:4 for the IL6 assay using the assay medium. ELISA was performed using Human TNF-α ELISA MAX™ Deluxe (Catalog #430204, Biolegend, San Diego, Calif.) and Human IL-6 ELISA MAX™ Deluxe (Catalog #430504, Biolegend, San Diego, Calif.) kits. […] Following several washes to remove unbound avidin-HRP, the TMB substrate was added and the plates were read on the Cytation 3 plate reader (Biotek Inc., Winooski, Vt.) at an absorbance of 450 nm with correction at 570 nm. […] Inhibition profile and EC50 was calculated using Prism 5 (GraphPad Software Inc, La Jolla, Calif., USA). […]

Each structure is given as a SMILES string.

Usually EC50 stands for the concentration giving half of the maximal effect. For `COc1ccc(NC(=O)c2n[nH]c3ccc(-c4cncc(CN5CCCCC5)c4)cc23)cn1` [compound 175, N-(6-Methoxypyridin-3-yl)-5-(5-(piperidin-1-ylmethyl)pyridin-3-yl)-1H-indazole-3-carboxamide], the EC50 in assay [1] was 10.4 µM; in assay [3], 0.342 to 0.547 µM. Further, the “blinded histology scoring of tendon injury and inflammation vs vehicle” value in assay [2] (10 mg/ml with or without BA preservative, topical 21 days) is on record as “significantly ameliorated collagenase-induced tendinopathy”. The tendon histology score in assay [2] (Group 3, 10 mg/mL with BA) is given as 14.0 (±0.217); in assay [2] (Group 4, 10 mg/mL without BA (0.5% Tween 80)), 12.2 (±0.284).

Values taken from patent publication US10806726B2, “Methods of using indazole-3-carb oxamides and their use as Wnt/B-catenin signaling pathway inhibitors” (Samumed, LLC, priority 2016, dated 2020).
